Data as given in patent US10358672B2, “7-β-hydroxysteroid dehydrogenase mutants and process for the preparation of ursodeoxycholic acid” (Pharmazell GmbH, priority 2014, dated 2019).
Substitutions are numbered along the chain they refer to.

Key:
[1] = biological target: T1, Collinsella aerofaciens 7β-HSDH dual mutant [G39S/R64E], with His tag, SEQ ID NO:6 (Collinsella aerofaciens, UniProt A4ECA9, G39S/R64E); assay: Michaelis-Menten kinetics, purified 7β-HSDH [G39S/R64E]
T1 sequence (A4ECA9 with tags, fused parts or gaps G39S/R64E): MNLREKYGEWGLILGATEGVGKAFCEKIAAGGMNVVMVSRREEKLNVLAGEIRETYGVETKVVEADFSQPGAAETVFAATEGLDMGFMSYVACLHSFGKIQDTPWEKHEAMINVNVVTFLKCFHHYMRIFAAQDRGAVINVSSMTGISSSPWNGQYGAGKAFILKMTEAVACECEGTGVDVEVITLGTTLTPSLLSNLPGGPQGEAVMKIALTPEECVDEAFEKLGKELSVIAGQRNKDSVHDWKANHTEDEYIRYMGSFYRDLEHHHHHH
Method: (§1) The activity of the 7β-HSDH and of the mutants was determined using a photometric assay, where the decrease in absorbance was measured at 340 nm over a period of 30 seconds.

[2] = biological target: Collinsella aerofaciens 7β-HSDH mutant [T17F] (Collinsella aerofaciens, UniProt A4ECA9, T17F); type: biochemical; conditions: in comparison with the wild type
Chain of Collinsella aerofaciens 7β-HSDH mutant [T17F] (A4ECA9 1-263 with tags or gaps T17F): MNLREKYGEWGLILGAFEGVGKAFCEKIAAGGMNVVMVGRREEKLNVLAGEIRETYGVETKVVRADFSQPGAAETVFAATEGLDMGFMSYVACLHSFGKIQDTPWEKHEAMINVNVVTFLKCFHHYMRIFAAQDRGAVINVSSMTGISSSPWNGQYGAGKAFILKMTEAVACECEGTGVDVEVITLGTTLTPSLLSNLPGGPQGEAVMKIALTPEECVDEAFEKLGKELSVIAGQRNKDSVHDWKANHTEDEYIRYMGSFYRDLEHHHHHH

[3] = biological target: T2, Collinsella aerofaciens 7β-HSDH mutant [G39S], with His tag, SEQ ID NO:5 (Collinsella aerofaciens, UniProt A4ECA9, G39S); assay: Michaelis-Menten kinetics, purified 7β-HSDH [G39S]; conditions: in comparison with the wild type
T2 sequence (A4ECA9 with tags, fused parts or gaps G39S): T1 sequence (A4ECA9 with tags, fused parts or gaps G39S/R64E) with E64R
Method: as §1
The kinetic parameter constants vmax and KM were determined with purified enzyme.

[4] = biological target: T3, Collinsella aerofaciens 7β-HSDH mutant [R64E], with His tag, SEQ ID NO:4 (Collinsella aerofaciens, UniProt A4ECA9, R64E); assay: Michaelis-Menten kinetics, purified 7β-HSDH [R64E]; conditions: in comparison with the wild type
T3 sequence (A4ECA9 with tags, fused parts or gaps R64E): T1 sequence (A4ECA9 with tags, fused parts or gaps G39S/R64E) with S39G
From the text: In this manner, all the enzymes have been isolated and characterized.
The His-tag allows for very simple purification of the HSDH protein since this sequence is bound with high specificity by specific chromatographic material (NTA (Ninitrilotriacetate)-modified support material, loaded with divalent nickel ions, for example “His Pur Ni-NTA” (Nimagen B. V., Nijmegen, The Netherlands)). To this end, the cell-free crude extract is applied to a dropping column comprising this material, which dropping column has previously been equilibrated with the disruption buffer (3 to 5 column volumes). Weakly binding protein was removed by washing with 3 to 5 column volumes of wash buffer (20 mM imidazole, 50 mM sodium phosphate, 300 mM NaCl, pH 8). […] The process was carried out at room temperature. The imidazole which was present was to be removed by buffer exchange.
as §1

[5] = biological target: 7β-HSDH obtainable from Collinsella aerofaciens DSM 3979 (Collinsella aerofaciens, UniProt A4ECA9); conditions: cited from earlier work
Chain of 7β-HSDH obtainable from Collinsella aerofaciens DSM 3979 (A4ECA9 whole entry): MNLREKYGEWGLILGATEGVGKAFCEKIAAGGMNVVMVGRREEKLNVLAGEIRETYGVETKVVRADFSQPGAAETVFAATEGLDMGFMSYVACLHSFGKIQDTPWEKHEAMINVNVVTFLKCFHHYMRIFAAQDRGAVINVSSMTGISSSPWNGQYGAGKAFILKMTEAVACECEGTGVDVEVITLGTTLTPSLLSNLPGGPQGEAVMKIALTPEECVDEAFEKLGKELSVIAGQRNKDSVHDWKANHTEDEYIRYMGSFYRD

For C[C@H](CCC(=O)O)[C@H]1CC[C@H]2[C@@H]3C(=O)C[C@@H]4CC(=O)CC[C@]4(C)[C@H]3CC(=O)[C@]12C [DHCA, dehydrocholic acid], which “Vmax (DHCA), improvement” value ([1]; in comparison with the wild type) is on record?
The value was “+7-fold better”.

What about the substrate inhibition ([1]; in words, course of kinetics in FIG. 6) of the same compound?
Its substrate inhibition is “no longer demonstrates a substrate inhibition”.

What about the “Substrate inhibition Ki” value ([1]; in words, in comparison with the wild type) of the same compound?
The value was “++eliminated”.

And the “Vmax (DHCA), improvement” value [2]?
Its value is “+5-fold better”.

And the “Vmax (DHCA), improvement” value [3]?
The value was “+6-fold better”.

What about the “Substrate inhibition Ki” value ([3]; in words) of the same compound?
Its value is “+reduced”.

And the “Vmax (DHCA), improvement” value [4]?
The value was “+5-fold better”.

And the “Substrate inhibition Ki” value ([4]; in words)?
Its value is “+reduced”.

And the kcat [5]?
The kcat was 875.35.
